# Assay results from PMC11766601, “A Comparative Study of the In Vitro Intestinal Permeability of Pinnatoxins and Portimine” (Marine Drugs, 2025).
# Legend:
# Caco-2 cells = assay: Trans-epithelial electrical resistance (TEER) of differentiated Caco-2 monolayers; format: cell-based, human; settings: 24 h
# Description: (§1) All experiments were performed with human intestinal Caco-2 cells (ATCC-HTB37), acquired from the American Type Culture Collection (ATCC; Manassas, VA, USA). Caco-2 cells originate from a colorectal adenocarcinoma, but upon reaching confluence, they differentiate and express the characteristics of enterocytes. The cells were cultivated in minimum essential medium containing 5.5 mM D-glucose, Earle’s salts, and 2 mM L-alanyl-glutamine (MEM GlutaMAX™, Gibco, Bromont, QC, Canada) supplemented with 10% fetal bovine serum (FBS, Gibco), 1% non-essential amino acids, 50 U/mL penicillin, and 50 μg/mL streptomycin (Gibco) under humidified conditions (37 °C, 5% CO2, 95% humidity). The cells were grown for 3–4 days up to 80% confluence before trypsinization and sub-culture. For the experiments, the cells were seeded in TRANSWELL® plates (12 wells, 0.4 µm pore size; Costar®, Corning Incorporated, Corning, NY, USA) at a density of 90,000 cells/cm^2. Prior to toxin treatment, highly differentiated Caco-2 cells were obtained after 24–26 days of culture, with medium renewal every 2–3 days. Passage numbers between 30 and 40 were used for experiments.
# (§2) PnTX-A, PnTX-G, PnTX-E, PnTX-H, and portimine stock solutions were prepared in methanol, while PnTX-F was provided in acetonitrile/acetic acid (50%/0.1%). For each toxin, the cells were incubated at 8, 16, and 32 ng/mL (diluted in HBSS) for 2 h, 6 h, and 24 h, with a final volume of 1.5% solvent. The controls were incubated with the cell culture medium containing the respective solvent of the toxin at 1.5%. Each experiment included three biological replicates. Two to three independent experiments were conducted.
# Epithelial integrity was examined by measuring the TEER between the apical and basolateral compartments. After rinsing with a HBSS solution (HBSS, HEPES 5 mM, pH 7.4), the Caco-2 monolayers were equilibrated for 30 min at 37 °C with 300 and 1000 µL HBSS in the apical (A) and basolateral (B) chambers, respectively. Then, the content of the apical compartment was replaced with 500 µL HBSS-containing toxins. TEER was quantified with a Millipore Millicell Electrical Resistance System (ERS Millipore, EMD Millipore Corporation, Burlington, MA, USA). The mean value of two measurements per well before and after the treatment was calculated and multiplied by the surface of the insert to obtain Ω × cm^2. After blank subtraction, the results were presented as a percentage of the solvent control.
# Caco-2 cell monolayers [1] = assay: Lucifer Yellow paracellular permeability (barrier integrity); format: cell-based, human; settings: 24 h
# Description: as §1, §2
# For the assay, both compartments of the insert system were washed with Hank’s balanced salt solution (HBSS). Then, 0.5 mL of 0.1 mg/mL Lucifer Yellow in HBSS buffer and 1 mL of pure HBSS buffer were added to the apical and basolateral compartments, respectively. After a 2 h incubation at 37 °C, the media of the basolateral compartments were collected and the fluorescence of each compartment was measured in triplicate (excitation: 405 nm, emission: 520 nm) with a FLUOstar Optima microplate reader (BMG Labtech, Ortenberg, Germany). After subtraction of the blank (HBSS), the permeability of the […] was calculated against the value obtained for pure LY and reported as % permeability.
# [2] = parameters: method as in PMID 32246951; settings: Anses 2020; cited from earlier work
# [3] = Toxin crossing and apparent permeability across Caco-2 cell monolayers (A to B), LC-MS/MS; format: in vitro ADME, human; settings: human, Caco-2, A to B; for Papp at 2 h, 8 ng/mL / Papp at 6 h, 8 ng/mL: loaded 8 ng/mL; for Papp at 2 h, 16 ng/mL / Papp at 6 h, 16 ng/mL: loaded 16 ng/mL; for Papp at 2 h, 32 ng/mL / Papp at 6 h, 32 ng/mL: loaded 32 ng/mL
# Description: as §1, §2
# (§3) The apical and basolateral compartments were collected after 2, 6, and 24 h treatment time. Parts of the solutions that were used to load the apical compartments were also stored (T0) to take into account the real concentration and not the estimated concentration. All the samples were stored at −20 °C until LC/MS analysis.
# (§4) The LC-MS/MS analysis of toxins was implemented for the quantitative analysis of toxins. The LC system was an Agilent 1200 (Agilent Technologies, Santa Clara, CA, USA). The chromatographic separation was performed using a column Hypersil GOLD® C18 50 mm × 2.1 mm, 1.9 μm (Thermo Scientific, Waltham, MA, USA). Eluent A consisted of water, and eluent B of acetonitrile/water at a ratio of 95:5 (v/v), with both eluents containing 50 mM formic acid and 2 mM ammonium formate. The LC flow rate was 0.4 mL/min, and the gradient was programmed as follows: 10% B held for 0.5 min, 10–90% B in 5 min, 90% B held for 1 min, 90–10% B in 0.5 min, and 10% B held for 3.0 min, for a total run time of 10 min. The injection volume was 5 μL, while the column temperature was maintained at 40 °C. The column effluent was transferred via a divert valve (Valco Instruments Co., Inc., Houston, TX, USA), either to the mass spectrometer (between 1.7 and 5.5 min) or to waste.
# (§5) The detection system was constructed with an API 4000 triple quadrupole mass spectrometer (Sciex, Framingham, MA, USA) equipped with an ElectroSpray Ionization (ESI) source (Turbo V). The mass spectrometer was operated in positive ESI mode. The source temperature was set at 600 °C, and the spray voltage was 5500 V. Air was used as a nebulizer gas and an auxiliary gas, with a gas pressure of 40 and 60 psi, respectively. Meanwhile, the curtain gas and collision gas were nitrogen, with a gas pressure of 15 and 8 psi, respectively. The mass spectrometer was operated in multiple reaction monitoring mode (MRM). One transition was used for quantification (Q) and another as a qualifier transition (q). A mass resolution of 0.7 Da full width at half maximum (FWHD) was set on the first (Q1) and the third (Q3) quadrupoles. Instrument control and data were handled with Analyst software version 1.5.1 (Sciex, Framingham, MA, USA).
# (§6) The portimine and PnTX retention times varied between 2.7 and 4.4 min (Figure S1). […]
# Caco-2 cell monolayers [4] = assay: as above; format: in vitro ADME, human; settings: for % theoretical amount of toxin crossing the Caco-2 cell monolayers: relative to theoretical loaded concentration; for Percentage of toxin crossing the Caco-2 cell monolayers: A to B, relative to quantified T0; for permeability / oral bioavailability class from Caco-2 Papp: threshold Papp > 1.5 × 10^−6 cm·s^−1 = highly penetrative
# Description: as §1, §2, §3, §4, §5, §6
# rats = system: rats; parameters: method as in PMID 34380275; settings: six hours after gavage of rats with [H^3] 100 µg/kg; liver, kidney, spleen, brain regions; cited from earlier work
# mice [5] = settings: cited from earlier work
# mice [6] = settings: cited from earlier work; remark: listed apart in the source
# cancer cells = settings: observed by several methods; cited from earlier work
Structure (SMILES),"Papp at 2 h, 8 ng/mL [3] [×10⁻⁶ cm/s]","Papp at 2 h, 16 ng/mL [3] [×10⁻⁶ cm/s]","Papp at 2 h, 32 ng/mL [3] [×10⁻⁶ cm/s]","Papp at 6 h, 8 ng/mL [3] [×10⁻⁶ cm/s]","Papp at 6 h, 16 ng/mL [3] [×10⁻⁶ cm/s]","Papp at 6 h, 32 ng/mL [3] [×10⁻⁶ cm/s]","% theoretical amount of toxin crossing the Caco-2 cell monolayers (Caco-2 cell monolayers [4]; 2 h, 8 ng/mL) [%]","% theoretical amount of toxin crossing the Caco-2 cell monolayers (Caco-2 cell monolayers [4]; 2 h, 16 ng/mL) [%]","% theoretical amount of toxin crossing the Caco-2 cell monolayers (Caco-2 cell monolayers [4]; 2 h, 32 ng/mL) [%]","Percentage of toxin crossing the Caco-2 cell monolayers (Caco-2 cell monolayers [4]; 2 h, loaded 8 ng/mL) [%]","Percentage of toxin crossing the Caco-2 cell monolayers (Caco-2 cell monolayers [4]; 2 h, loaded 16 ng/mL) [%]","Percentage of toxin crossing the Caco-2 cell monolayers (Caco-2 cell monolayers [4]; 2 h, loaded 32 ng/mL) [%]","% theoretical amount of toxin crossing the Caco-2 cell monolayers (Caco-2 cell monolayers [4]; 6 h, 8 ng/mL) [%]","% theoretical amount of toxin crossing the Caco-2 cell monolayers (Caco-2 cell monolayers [4]; 6 h, 16 ng/mL) [%]","% theoretical amount of toxin crossing the Caco-2 cell monolayers (Caco-2 cell monolayers [4]; 6 h, 32 ng/mL) [%]","Percentage of toxin crossing the Caco-2 cell monolayers (Caco-2 cell monolayers [4]; 6 h, loaded 8 ng/mL) [%]","Percentage of toxin crossing the Caco-2 cell monolayers (Caco-2 cell monolayers [4]; 6 h, loaded 16 ng/mL) [%]","Percentage of toxin crossing the Caco-2 cell monolayers (Caco-2 cell monolayers [4]; 6 h, loaded 32 ng/mL) [%]",permeability / oral bioavailability class from Caco-2 Papp (Caco-2 cell monolayers [4]),further results
"C=CC1=CC2C3OC4(CC5CCCC6(CCC7(OC(CCC7(C)O)CC(=C)CCCC7=NCC(C)C(C)CC72CC1)O6)O5)CC(C)C(O)C3O4 (stereo not shown) [PnTX-G, Pinnatoxin G]",9.69 ± 3.25,14.4 ± 2.7,14.3 ± 3.45,21.4 ± 5.82,22.8 ± 3.26,26.9 ± 3.82,6.83 ± 1.04,8.37 ± 1.19,8.64 ± 0.53,15.62 ± 5.24,23.32 ± 4.36,23.07 ± 5.56,15.17 ± 0.58,13.25 ± 1.30,16.58 ± 2.86,34.43 ± 9.39,36.83 ± 5.26,43.41 ± 6.15,high oral bioavailability,"effect on TEER (Caco-2 cells; 16 and 32 ng/mL): slight, but non-significant, decrease; effect on passage of LY (Caco-2 cell monolayers [1]): lower effect; provisional acute health-based guidance value [2]: 0.13 μg PnTX-G/kg body weight per day; tissue distribution of radioactivity (rats): radioactivity was distributed in the peripheral organs; effect on the small intestine (mice [5]; mice orally treated with 300 μg/kg and above, villous atrophy, focal degeneration of epithelial cells): alteration of the small intestine; onset of toxicity after oral exposure (mice [5]; oral exposure to a certain dose): within one hour"
"C=CC1=CC2C3O[C@]4(CCC(O4)[C@@H](C)C[C@@H](O)C3=O)C[C@H](O)C3=NCC[C@@]32CC1 (stereo partly shown) [Portimine, portimine]",5.72 ± 0.91,9.6 ± 0.55,14.4 ± 5.27,15 ± 2.29,19 ± 349,24.5 ± 3.01,8.50 ± 1.25,13.33 ± 1.69,20.73 ± 7.28,9.23 ± 1.46,15.48 ± 0.89,23.25 ± 6.88,22.33 ± 3.36,26.08 ± 3.00,34.60 ± 4.41,24.23 ± 3.69,30.63 ± 5.62,39.45 ± 4.86,high oral bioavailability,"TEER (Caco-2 cells; all of the concentrations (8, 16, 32 ng/mL)): 10.02 ± 0.96 % of control value; effect on LY permeability (Caco-2 cell monolayers [1]; all concentrations (8, 16, 32 ng/mL)): significant increase; mechanism of transport from the apical to the basolateral compartment (Caco-2 cell monolayers [4]; inferred from concentration-dependent Papp): passive diffusion; acute intraperitoneal toxicity (mice [6]): not very toxic; apoptosis induction (cancer cells): induces apoptosis"
